Literature values in patent US4112071A, “Antibiotic complex” (priority 1977, dated 1978).

Assays:
[1] = system: several animal tumor systems; settings: J. Antibiotics, April 1974, 254-259
[2] = system: animal and human cancers; settings: Cancer Chemother. Rep., Part 1, 58, 255 (1974)

CC(=O)[C@]1(O)Cc2c(O)c3c(c(O)c2[C@@H](O[C@H]2C[C@H](N)[C@H](O)[C@H](C)O2)C1)C(=O)c1c(O)cccc1C3=O [carminomycin I]
activity against several animal tumor systems [1]: active
antitumor activity in a variety of animal and human cancers [2]: promising antitumor activity
